According to ChEMBL document CHEMBL5154873, “Selective degradation of PARP2 by PROTACs via recruiting DCAF16 for triple-negative breast cancer” (Eur J Med Chem, 2022):
Active and inactive are the calls of the source. The calls are words filed in the database; no cut-off is given here.

Columns and labels:
MDA-MB-436 = experiment: Antiproliferative activity against human BRCA1 -/- MDA-MB-436 cells assessed as reduction in cell viability incubated for 5 to 10 days by MTT assay; assay type: functional, cell-based
CAPAN-1 = experiment: Antiproliferative activity against human BRCA2 -/- CAPAN-1 cells assessed as reduction in cell viability incubated for 5 to 10 days by MTT assay; assay type: functional, cell-based
MDA-MB-468 = experiment: Antiproliferative activity against human PTEN -/- MDA-MB-468 cells assessed as reduction in cell viability incubated for 5 to 10 days by MTT assay; assay type: functional, cell-based
MDA-MB-231 = experiment: Antiproliferative activity against wild type human MDA-MB-231 cells assessed as reduction in cell viability incubated for 5 to 10 days by MTT assay; assay type: functional, cell-based
[1] = target: DDB1- and CUL4-associated factor 16/Poly [ADP-ribose] polymerase 2 (Homo sapiens, UniProt Q9UGN5+Q9NXF7); experiment: Protac activity at DCAF16 E3 ligase/PARP2 in human MDA-MB-231 cells assessed as induction of PARP2 degradation at 1 uM measured after 24 hrs by Western blot analysis; assay type: cell-based
Sequence of DDB1- and CUL4-associated factor 16/Poly [ADP-ribose] polymerase 2 (Q9NXF7 whole entry, looked up): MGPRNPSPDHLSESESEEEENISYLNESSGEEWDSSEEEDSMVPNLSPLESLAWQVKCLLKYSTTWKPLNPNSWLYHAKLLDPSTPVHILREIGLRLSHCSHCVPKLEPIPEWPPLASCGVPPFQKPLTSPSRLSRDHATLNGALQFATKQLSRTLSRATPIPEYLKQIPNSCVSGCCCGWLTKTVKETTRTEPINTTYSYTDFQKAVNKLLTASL
Sequence of DDB1- and CUL4-associated factor 16/Poly [ADP-ribose] polymerase 2 (Q9UGN5 whole entry, looked up): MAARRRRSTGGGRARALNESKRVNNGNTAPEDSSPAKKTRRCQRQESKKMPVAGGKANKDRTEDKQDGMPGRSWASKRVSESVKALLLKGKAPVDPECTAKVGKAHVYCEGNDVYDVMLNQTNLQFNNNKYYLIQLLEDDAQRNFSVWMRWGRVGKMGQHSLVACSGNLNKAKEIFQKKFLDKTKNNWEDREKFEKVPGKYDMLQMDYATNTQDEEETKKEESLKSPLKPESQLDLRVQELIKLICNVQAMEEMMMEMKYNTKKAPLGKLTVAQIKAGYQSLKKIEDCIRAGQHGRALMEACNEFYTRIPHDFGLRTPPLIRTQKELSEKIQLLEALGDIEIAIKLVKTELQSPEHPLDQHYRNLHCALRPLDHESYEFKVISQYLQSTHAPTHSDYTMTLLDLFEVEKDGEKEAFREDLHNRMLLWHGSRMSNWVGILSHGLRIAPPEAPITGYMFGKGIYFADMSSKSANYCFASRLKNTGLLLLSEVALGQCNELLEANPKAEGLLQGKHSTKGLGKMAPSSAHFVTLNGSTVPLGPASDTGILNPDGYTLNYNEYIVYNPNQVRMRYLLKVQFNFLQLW

Row | SMILES | IC50 (MDA-MB-436) [µM] | IC50 (MDA-MB-468) [µM] | IC50 (MDA-MB-231) [µM] | Activity [1] | IC50 (CAPAN-1) [µM]
1 | NC(=O)n1nc(Cc2ccc(F)c(C(=O)N3CCN(C(=O)CCC(=O)NCCCCNC(=O)COc4ccc5c(c4)CCCN5C(=O)CCl)CC3)c2)c2ccccc2c1=O | 0.82 | 7.45 | 9.74 | Active | 1.96
2 | O=C(CCC(=O)N1CCN(C(=O)c2cc(Cc3n[nH]c(=O)c4ccccc34)ccc2F)CC1)NCCOCCOCCOCCNC(=O)COc1ccc2c(c1)CCCN2C(=O)CCl | 1.75 | 6.37 | 9.71 |  | 1.6
3 | O=C(COc1ccc2c(c1)CCCN2C(=O)CCl)NCCCCCCNC(=O)CN1CCN(C(=O)c2cc(Cc3n[nH]c(=O)c4ccccc34)ccc2F)CC1 | 1.96 | 11.2 | 12.3 |  | 4.36
4 | O=C(COc1ccc2c(c1)CCCN2C(=O)CCl)NCCOCCNC(=O)CN1CCN(C(=O)c2cc(Cc3n[nH]c(=O)c4ccccc34)ccc2F)CC1 | 2.89 | > 20 | > 20 |  | 5.28
5 | O=C(CCC(=O)N1CCN(C(=O)c2cc(Cc3n[nH]c(=O)c4ccccc34)ccc2F)CC1)NCCOCCOCCNC(=O)COc1ccc2c(c1)CCCN2C(=O)CCl | 1.19 | 9.74 | 12.9 |  | 1.28
6 | O=C(COc1ccc2c(c1)CCCN2C(=O)CCl)NCCOCCOCCOCCOCCNC(=O)CN1CCN(C(=O)c2cc(Cc3n[nH]c(=O)c4ccccc34)ccc2F)CC1 | 5.02 | > 20 | > 20 |  | 7.04
7 | O=C(COc1ccc2c(c1)CCCN2C(=O)CCl)NCCNC(=O)CN1CCN(C(=O)c2cc(Cc3n[nH]c(=O)c4ccccc34)ccc2F)CC1 | 1.69 | 13.4 | > 20 |  | 3.3
8 | O=C(CCC(=O)N1CCN(C(=O)c2cc(Cc3n[nH]c(=O)c4ccccc34)ccc2F)CC1)NCCCNC(=O)COc1ccc2c(c1)CCCN2C(=O)CCl | 1.19 | 5.9 | 7.19 | Active | 1.87
9 | O=C(COc1ccc2c(c1)CCCN2C(=O)CCl)NCCOCCOCCNC(=O)CN1CCN(C(=O)c2cc(Cc3n[nH]c(=O)c4ccccc34)ccc2F)CC1 | 3.46 | > 20 | > 20 |  | 7.63
10 | O=C(COc1ccc2c(c1)CCCN2C(=O)CCl)NCCCNC(=O)CN1CCN(C(=O)c2cc(Cc3n[nH]c(=O)c4ccccc34)ccc2F)CC1 | 2.7 | > 20 | > 20 |  | 3.37
11 | O=C(COc1ccc2c(c1)CCCN2C(=O)CCl)NCCOCCOCCOCCNC(=O)CN1CCN(C(=O)c2cc(Cc3n[nH]c(=O)c4ccccc34)ccc2F)CC1 | 1.74 | > 20 | > 20 |  | 3.49
12 | O=C(COc1ccc2c(c1)CCCN2C(=O)CCl)NCCC(=O)N1CCN(C(=O)c2cc(Cc3n[nH]c(=O)c4ccccc34)ccc2F)CC1 | 0.66 | > 20 | > 20 |  | 0.9
13 | O=C(CCC(=O)N1CCN(C(=O)c2cc(Cc3n[nH]c(=O)c4ccccc34)ccc2F)CC1)NCCOCCOCCOCCOCCNC(=O)COc1ccc2c(c1)CCCN2C(=O)CCl | 0.78 | 7.43 | 11 |  | 1.95
14 | O=C(COc1ccc2c(c1)CCCN2C(=O)CCl)NCCCCNC(=O)CN1CCN(C(=O)c2cc(Cc3n[nH]c(=O)c4ccccc34)ccc2F)CC1 | 1.84 | 9.1 | 11.7 |  | 2.69
15 | O=C(CCC(=O)N1CCN(C(=O)c2cc(Cc3n[nH]c(=O)c4ccccc34)ccc2F)CC1)NCCNC(=O)COc1ccc2c(c1)CCCN2C(=O)CCl | 1.48 | 6.18 | 8.44 | Active | 3.16
16 | O=C(CCC(=O)N1CCN(C(=O)c2cc(Cc3n[nH]c(=O)c4ccccc34)ccc2F)CC1)NCCOCCNC(=O)COc1ccc2c(c1)CCCN2C(=O)CCl | 1.48 | 6.01 | 8.27 |  | 2.83

The remaining compounds from weak to strong by IC50 (MDA-MB-436), led by results:

Row | IC50 (MDA-MB-436) [µM] | IC50 (MDA-MB-468) [µM] | IC50 (MDA-MB-231) [µM] | Activity [1] | SMILES | IC50 (CAPAN-1) [µM]
17 | 0.66 | 5.7 | 6.21 | Active | O=C(CCC(=O)N1CCN(C(=O)c2cc(Cc3n[nH]c(=O)c4ccccc34)ccc2F)CC1)NCCCCCCCNC(=O)COc1ccc2c(c1)CCCN2C(=O)CCl | 1.69
18 | 0.63 | 8.17 | 6.68 |  | O=C(COc1ccc2c(c1)CCCN2C(=O)CCl)NCCOCCOCCOCCn1cc(CCCCC(=O)N2CCN(C(=O)c3cc(Cc4n[nH]c(=O)c5ccccc45)ccc3F)CC2)nn1 | 2.23
19 | 0.57 | 7.24 | > 20 |  | O=C(COc1ccc2c(c1)CCCN2C(=O)CCl)NCCCCC(=O)N1CCN(C(=O)c2cc(Cc3n[nH]c(=O)c4ccccc34)ccc2F)CC1 | 0.79
20 | 0.49 | > 20 | > 20 |  | O=C(COc1ccc2c(c1)CCCN2C(=O)CCl)NCCCC(=O)N1CCN(C(=O)c2cc(Cc3n[nH]c(=O)c4ccccc34)ccc2F)CC1 | 0.84
21 | 0.35 | 3.91 | 5.59 | Active | O=C(CCC(=O)N1CCN(C(=O)c2cc(Cc3n[nH]c(=O)c4ccccc34)ccc2F)CC1)NCCCCCCNC(=O)COc1ccc2c(c1)CCCN2C(=O)CCl | 0.99
22 | 0.29 | 1.22 | 2.42 | Active | O=C(CCC(=O)N1CCN(C(=O)c2cc(Cc3n[nH]c(=O)c4ccccc34)ccc2F)CC1)NCCCCCNC(=O)COc1ccc2c(c1)CCCN2C(=O)CCl | 0.89
23 | 0.24 | 4.68 | 5.31 |  | O=C(COc1ccc2c(c1)CCCN2C(=O)CCl)NCCCCCC(=O)N1CCN(C(=O)c2cc(Cc3n[nH]c(=O)c4ccccc34)ccc2F)CC1 | 0.39
24 | 0.11 | 2.11 | 4.23 | Active | O=C(COc1ccc2c(c1)CCCN2C(=O)CCl)NCCCCCCCC(=O)N1CCN(C(=O)c2cc(Cc3n[nH]c(=O)c4ccccc34)ccc2F)CC1 | 0.12
25 | 0.077 | 1.7 | 2.69 | Active | O=C(COc1ccc2c(c1)CCCN2C(=O)CCl)NCCCCCCCCC(=O)N1CCN(C(=O)c2cc(Cc3n[nH]c(=O)c4ccccc34)ccc2F)CC1 | 0.15
26 | 0.055 | 5.85 | 3.51 |  | O=C(COc1ccc2c(c1)CCCN2C(=O)CCl)NCC(=O)N1CCN(C(=O)c2cc(Cc3n[nH]c(=O)c4ccccc34)ccc2F)CC1 | 0.61
27 | 0.043 | 2.23 | 3.1 |  | CCC(=O)N1CCCc2cc(OCC(=O)NCCCCCCCCCCC(=O)N3CCN(C(=O)c4cc(Cc5n[nH]c(=O)c6ccccc56)ccc4F)CC3)ccc21 | 0.087
28 | 0.025 | 0.72 | 0.81 | Active | O=C(COc1ccc2c(c1)CCCN2C(=O)CCl)NCCCCCCCCCCC(=O)N1CCN(C(=O)c2cc(Cc3n[nH]c(=O)c4ccccc34)ccc2F)CC1 | 0.068
